Data as given in PMC11714206, “Massively Parallel Screening of Toll/Interleukin‐1 Receptor (TIR)‐Derived Peptides Reveals Multiple Toll‐Like Receptors (TLRs)‐Targeting Immunomodulatory Peptides” (Advanced Science, 2024).

Target: T1, MAL^TIR (Homo sapiens, UniProt P58753)
T1 construct: MAL (residues 79–221); 6xHis; made in house; host or cells: E. coli BL21 (DE3)
Experiment: T‐Surf phage library (P8 and P3) selection against MAL^TIR, four rounds, NGS read counts
Type: binding
Conditions: for P8_MAL Rank (after) / P8_MAL Rank (before): P8 library; for Population: 4th round of selection against MAL TIR, share of NGS reads; for P3_MAL Rank (after) / P3_MAL Rank (before): P3 library
How it was run: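 Library of 190 946 TIR‐derived peptides on P8 or P3 was panned on immobilized TIR domain coated at 5 µg mL^−1, BSA‐blocked, 1 h binding at RT, PBS/0.5% Tween‐20 washes, HCl elution, TG1 amplification. Fourth‐round pools were PCR‐barcoded, sequenced (100 bp paired‐end, Phred ≥30), and peptides ranked by read counts.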

[1] = P8_MAL: rank by count after grouping
[2] = P8_MAL: rank by count before grouping
[3] = selection against MAL, rank after grouping
[4] = selection against MAL, rank before grouping
[5] = P8_MAL pool: P8 T-Surf phage library
[6] = selection against MAL TIR, rank by count after grouping
[7] = selection against MAL TIR, rank by count before grouping
[8] = selection against MAL, rank by count after grouping
[9] = selection against MAL, rank by count before grouping
[10] = P3_MAL pool: P3 T-Surf phage library
[11] = P3_MAL: rank by count after grouping
[12] = P3_MAL: rank by count before grouping
[13] = 4R selection against MAL, rank after grouping
[14] = 4R selection against MAL, rank before grouping

T1 sequence (P58753 79-221): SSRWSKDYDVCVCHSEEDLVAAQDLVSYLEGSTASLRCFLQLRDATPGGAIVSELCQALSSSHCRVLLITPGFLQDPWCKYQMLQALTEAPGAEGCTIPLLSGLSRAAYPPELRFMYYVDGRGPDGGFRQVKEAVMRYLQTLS

AFFWAQLQSMLGNPTM
Rank (after) [1]: 138 | Rank (before) [2]: 1605

AFLGTFLIKLMHATIY
P8_MAL Rank (after) [3]: 570 | P8_MAL Rank (before) [4]: 1906

AFLYTFLINLTRPTNF
Population [5]: 0.0034%

WFYERLVILVLRDTKG
P8_MAL Rank (after) [6]: 250 | P8_MAL Rank (before) [7]: 1179

DWSLSKLSQHFLKREK
P3_MAL Rank (after) [3]: 485 | P3_MAL Rank (before) [4]: 1909

PFLVHQYNEALQADSH
P8_MAL Rank (after) [8]: 695 | P8_MAL Rank (before) [9]: 2330

LVAHEISKKMKIFATI
Rank (after) [1]: 182 | Rank (before) [2]: 923

ALLNNFLIKLTHPSII
Rank (after) [1]: 448 | Rank (before) [2]: 1959

NQCRNALTAAANLSGW
Population [10]: 0.00376%

NQWRNALTAAASLSGR
P3_MAL Rank (after) [6]: 221 | P3_MAL Rank (before) [7]: 3364

YTALTKSGVHAFRDND
Rank (after) [11]: 475 | Rank (before) [12]: 1552

DWFLSHLRHHLQAKDH
Rank (after) [11]: 183 | Rank (before) [12]: 779

YAFTGHLHHIWCSVA
P3_MAL Rank (after) [8]: 686 | P3_MAL Rank (before) [9]: 1430

NHWRNALTAAANLIGW
P8_MAL Rank (after) [6]: 248 | P8_MAL Rank (before) [7]: 2657

YFLHFLLFSRLETEYI
Population [5]: 0.00278%

AFLDPFLITLIQASNF
P8_MAL Rank (after) [3]: 505 | P8_MAL Rank (before) [4]: 1908

RNFWRIFFRRWPIKG
P8_MAL Rank (after) [8]: 714 | P8_MAL Rank (before) [9]: 2184

GGFLSHLFDAFSVSR
P3_MAL Rank (after) [8]: 749 | P3_MAL Rank (before) [9]: 1758

YAFTGYLHRYLVQRGV
Population [10]: 0.00827%

WFYERLVGLILRDTKV
Population [5]: 0.0034%

WFYERLVRLILRDNKV
P8_MAL Rank (after) [13]: 607 | P8_MAL Rank (before) [14]: 1280

SSFRDGLWRLPELSKK
P3_MAL Rank (after) [6]: 246 | P3_MAL Rank (before) [7]: 3130

PNLRTKVLYYPMRTKT
P3_MAL Rank (after) [13]: 624 | P3_MAL Rank (before) [14]: 2699

TFLDTLLNKLAQAAIH
Rank (after) [1]: 470 | Rank (before) [2]: 2626

AFFWEQMRTVLGKPTT
P8_MAL Rank (after) [13]: 612 | P8_MAL Rank (before) [14]: 1710

AFMYTFLINLTHPNNF
P8_MAL Rank (after) [8]: 681 | P8_MAL Rank (before) [9]: 1923

QLIQQWIELHAPAAS
Rank (after) [1]: 151 | Rank (before) [2]: 969

NQWRNALTAAAHLSGL
Rank (after) [11]: 157 | Rank (before) [12]: 3362

NQWRNALTATANLSGL
P3_MAL Rank (after) [13]: 604 | P3_MAL Rank (before) [14]: 3390

QLIQQLIELHLDQLHL
P8_MAL Rank (after) [13]: 653 | P8_MAL Rank (before) [14]: 2349

ARFKDMIINKWRTALT
P8_MAL Rank (after) [6]: 195 | P8_MAL Rank (before) [7]: 869

SFFWNKLRYHLPAPQH
P8_MAL Rank (after) [6]: 269 | P8_MAL Rank (before) [7]: 2441

RSFRDGLWRLLELSKK
Rank (after) [11]: 160 | Rank (before) [12]: 3232

LFFWDSLKHLLRCDGC
P8_MAL Rank (after) [13]: 593 | P8_MAL Rank (before) [14]: 2068

LFLWESLKHLLRSDGR
P8_MAL Rank (after) [6]: 232 | P8_MAL Rank (before) [7]: 2146

NQWRNALTAAANLSDR
P3_MAL Rank (after) [6]: 282 | P3_MAL Rank (before) [7]: 3379

AFFGAQLKSVLRNPTM
P8_MAL Rank (after) [6]: 191 | P8_MAL Rank (before) [7]: 1739

WFLLKFRTVLAHVNDV
P8_MAL Rank (after) [3]: 511 | P8_MAL Rank (before) [4]: 1354

AFFGAQLKSVLGNPTM
Population [5]: 0.0034%

KNVRLARSVRKNGVP
P3_MAL Rank (after) [8]: 697 | P3_MAL Rank (before) [9]: 3474

YLLLSVFQTIFARRTE
P8_MAL Rank (after) [6]: 238 | P8_MAL Rank (before) [7]: 800

WFYESLVSLILRDTIV
Rank (after) [1]: 122 | Rank (before) [2]: 1299

NQWRNALTAAANQSGL
Rank (after) [11]: 161 | Rank (before) [12]: 3383

NQLRTALTAAANLSGW
P3_MAL Rank (after) [6]: 267 | P3_MAL Rank (before) [7]: 3324

RLLNGKKRCISFIAG
P3_MAL Rank (after) [6]: 261 | P3_MAL Rank (before) [7]: 2475

TFLGHLYNTLVQPAIH
P8_MAL Rank (after) [13]: 620 | P8_MAL Rank (before) [14]: 2596

YAFTGHLHCYLVQRGI
P3_MAL Rank (after) [6]: 194 | P3_MAL Rank (before) [7]: 1375

TYLGNLNNALVQAGIH
P8_MAL Rank (after) [3]: 490 | P8_MAL Rank (before) [4]: 2649

AFLYTFLKNLPHPTNI
P8_MAL Rank (after) [8]: 709 | P8_MAL Rank (before) [9]: 1873

YAFTGHLHRYLCSVA
Rank (after) [11]: 144 | Rank (before) [12]: 508

LFYERLVSLILRHTRV
P8_MAL Rank (after) [13]: 624 | P8_MAL Rank (before) [14]: 1103

SFFWNKLRYALTYRPAT
Rank (after) [11]: 437 | Rank (before) [12]: 2995

YFLHFRLLSRPETEYI
P8_MAL Rank (after) [13]: 643 | P8_MAL Rank (before) [14]: 1505

TSFREGLLRLLELSKK
P3_MAL Rank (after) [8]: 754 | P3_MAL Rank (before) [9]: 3239

CRFRQGLWRLLELSKK
P3_MAL Rank (after) [13]: 611 | P3_MAL Rank (before) [14]: 1323

YFLHFLLFSRPETVYI
Population [5]: 0.00309%

AFLYTFLKNLMRKPTF
Rank (after) [1]: 422 | Rank (before) [2]: 1874

LHNNRILVLITLPTNV
P3_MAL Rank (after) [13]: 671 | P3_MAL Rank (before) [14]: 2132

RGVLSRLRHHLQAKDH
P3_MAL Rank (after) [3]: 551 | P3_MAL Rank (before) [4]: 2427

SSFREGLSPLAELSGK
Rank (after) [11]: 464 | Rank (before) [12]: 3174

LFFWESLKQLLRSVGH
P8_MAL Rank (after) [3]: 538 | P8_MAL Rank (before) [4]: 2102

ALQYTILINLTNPTNF
P8_MAL Rank (after) [13]: 665 | P8_MAL Rank (before) [14]: 1962

TSHLHHAMRLNKIDTF
P3_MAL Rank (after) [13]: 633 | P3_MAL Rank (before) [14]: 3244

YAFTRHLHRYLVQRAA
P3_MAL Rank (after) [3]: 553 | P3_MAL Rank (before) [4]: 1465

RVFLSHPRHHLQAKDP
P3_MAL Rank (after) [8]: 700 | P3_MAL Rank (before) [9]: 2346

YAFTDHLHRYLVQRGV
Population [10]: 0.00451%

AFLYTFLINLTHPQF
P8_MAL Rank (after) [6]: 275 | P8_MAL Rank (before) [7]: 1852

NYASSSWALDELWNIF
P8_MAL Rank (after) [3]: 502 | P8_MAL Rank (before) [4]: 2655

RNLVAYQFQALPNKGI
P8_MAL Rank (after) [13]: 658 | P8_MAL Rank (before) [14]: 2245

VRQNFISHLYDALHRNRI
Rank (after) [11]: 140 | Rank (before) [12]: 406

WFYERLFSLILRATKV
Rank (after) [1]: 148 | Rank (before) [2]: 1160

YFLHFLLFRRPENAYM
P8_MAL Rank (after) [6]: 268 | P8_MAL Rank (before) [7]: 1461

RLWDRLRYLMPRNNHH
P3_MAL Rank (after) [3]: 571 | P3_MAL Rank (before) [4]: 2325

VLQKFISHLYDFLARK
P3_MAL Rank (after) [6]: 262 | P3_MAL Rank (before) [7]: 761

ESILNQLRRSSESIAK
P3_MAL Rank (after) [6]: 211 | P3_MAL Rank (before) [7]: 2053

WFIIKFRTVLDRVNDV
Rank (after) [1]: 396 | Rank (before) [2]: 1372

KEVEGWRQALEKAGKL
Rank (after) [11]: 118 | Rank (before) [12]: 386

SLLYDYLRCLGIRAIL
Rank (after) [1]: 475 | Rank (before) [2]: 2493

RKFEAYLFQALANKGI
P8_MAL Rank (after) [6]: 208 | P8_MAL Rank (before) [7]: 2257

RNFVAQLKRALANKAI
P8_MAL Rank (after) [3]: 499 | P8_MAL Rank (before) [4]: 2310

AFFLGTAAYRAGQTDD
P8_MAL Rank (after) [6]: 198 | P8_MAL Rank (before) [7]: 802

RNFVAYLFQALADKGV
P8_MAL Rank (after) [6]: 273 | P8_MAL Rank (before) [7]: 2198

NNLFNELVSKNIRTFT
P3_MAL Rank (after) [8]: 735 | P3_MAL Rank (before) [9]: 3480

RGFLSHLRHHLQEQDH
P3_MAL Rank (after) [6]: 256 | P3_MAL Rank (before) [7]: 2378

RGFLSHLYQGLKNRGI
Rank (after) [11]: 423 | Rank (before) [12]: 2362

YAFTSHLHRYLVQRGV
Population [10]: 0.00827%

PNLRTNVLNYLIRTKT
Rank (after) [11]: 141 | Rank (before) [12]: 2745

KRFEDRMNKVLEWKAA
P8_MAL Rank (after) [8]: 698 | P8_MAL Rank (before) [9]: 2674

VEPTQVRKQSGAVENATG
P3_MAL Rank (after) [8]: 676 | P3_MAL Rank (before) [9]: 1673

FLNFRGLYVRNYFLGP
Rank (after) [11]: 462 | Rank (before) [12]: 1145

AFLYTFLIKLTHPPNF
Rank (after) [1]: 101 | Rank (before) [2]: 1862

KLIQGGCLYRLLKIEQ
Rank (after) [1]: 421 | Rank (before) [2]: 2752

SSFREGLGLLLELGKK
P3_MAL Rank (after) [3]: 535 | P3_MAL Rank (before) [4]: 3175

AFFGAQLKSVLGNPPM
P8_MAL Rank (after) [6]: 210 | P8_MAL Rank (before) [7]: 1740

AFLCTQLNNVTDTPTL
Rank (after) [1]: 442 | Rank (before) [2]: 1756

HQALWALMWAKHQTPI
P3_MAL Rank (after) [13]: 623 | P3_MAL Rank (before) [14]: 2894

AFLNTLLKNLTRPPNF
P8_MAL Rank (after) [3]: 562 | P8_MAL Rank (before) [4]: 1912

TFLYTFLINLTHPTNY
P8_MAL Rank (after) [13]: 674 | P8_MAL Rank (before) [14]: 2533

YAFTGHLRRYLLRRSV
Rank (after) [11]: 439 | Rank (before) [12]: 1372

YAFTGHLHRYLVQCGV
Population [10]: 0.00338%

KEVEGWRDALPHRYEP
P3_MAL Rank (after) [6]: 191 | P3_MAL Rank (before) [7]: 1095

WHFHVRLCLRKLLQAM
P3_MAL Rank (after) [8]: 694 | P3_MAL Rank (before) [9]: 1290

YAFTGHLHRYLVQLGV
Population [10]: 0.00676%

GCYERLVSLILRDTKV
Rank (after) [1]: 121 | Rank (before) [2]: 1571

AYLNTFLINLTHPTNF
Rank (after) [1]: 149 | Rank (before) [2]: 1951

AFLYTFLINRTHPTNF
Population [5]: 0.0034%
